One assay concerns the target CyaA CC activity (Bordetella pertussis, UniProt P0DKX7). Type of assay: biochemical. The note with it: read-out: Ki CyaA CC activity.
The target in the next assay is CyaA AC activity (Bordetella pertussis, UniProt P0DKX7). The note with it: read-out: Ki CyaA AC activity; cited from earlier work.
The target of the next assay is EF CC activity (Bacillus anthracis, UniProt P40136). Format: biochemical. The note with it: read-out: Ki EF CC activity.
Assay [1] deals with T1, EF AC activity (Bacillus anthracis, UniProt P40136). Type of assay: biochemical. The note with it: read-out: Ki EF AC activity.
The target in assay [2] is T1, EF AC activity. The note with it: read-out: Ki EF AC activity; cited from earlier work.

Like-named read-outs stand apart in the source and are kept apart here.

Sequence of EF CC activity (P40136 whole entry, looked up): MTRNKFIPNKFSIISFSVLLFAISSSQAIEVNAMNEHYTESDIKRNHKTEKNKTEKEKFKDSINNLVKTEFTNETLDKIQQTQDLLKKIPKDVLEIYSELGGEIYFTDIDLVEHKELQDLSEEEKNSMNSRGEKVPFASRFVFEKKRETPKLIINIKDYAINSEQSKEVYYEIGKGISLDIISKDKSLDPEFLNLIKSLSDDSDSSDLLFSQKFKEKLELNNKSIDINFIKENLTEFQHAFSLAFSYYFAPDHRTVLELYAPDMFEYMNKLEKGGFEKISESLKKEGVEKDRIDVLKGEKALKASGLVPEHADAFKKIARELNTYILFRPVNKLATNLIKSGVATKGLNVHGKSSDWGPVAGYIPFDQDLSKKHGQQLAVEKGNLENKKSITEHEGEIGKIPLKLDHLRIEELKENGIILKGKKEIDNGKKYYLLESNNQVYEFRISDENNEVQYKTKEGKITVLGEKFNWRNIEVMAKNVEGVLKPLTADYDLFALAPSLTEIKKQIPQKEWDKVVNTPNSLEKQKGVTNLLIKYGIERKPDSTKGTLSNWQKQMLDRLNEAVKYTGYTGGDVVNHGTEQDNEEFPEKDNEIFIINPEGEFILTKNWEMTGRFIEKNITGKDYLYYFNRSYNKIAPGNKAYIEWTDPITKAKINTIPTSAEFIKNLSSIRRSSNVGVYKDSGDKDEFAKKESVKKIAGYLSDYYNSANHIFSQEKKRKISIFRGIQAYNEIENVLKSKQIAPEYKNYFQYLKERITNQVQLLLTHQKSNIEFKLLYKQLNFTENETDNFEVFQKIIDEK
T1 sequence (P40136 whole entry, looked up): as above
Sequence of CyaA AC activity (P0DKX7 whole entry, looked up): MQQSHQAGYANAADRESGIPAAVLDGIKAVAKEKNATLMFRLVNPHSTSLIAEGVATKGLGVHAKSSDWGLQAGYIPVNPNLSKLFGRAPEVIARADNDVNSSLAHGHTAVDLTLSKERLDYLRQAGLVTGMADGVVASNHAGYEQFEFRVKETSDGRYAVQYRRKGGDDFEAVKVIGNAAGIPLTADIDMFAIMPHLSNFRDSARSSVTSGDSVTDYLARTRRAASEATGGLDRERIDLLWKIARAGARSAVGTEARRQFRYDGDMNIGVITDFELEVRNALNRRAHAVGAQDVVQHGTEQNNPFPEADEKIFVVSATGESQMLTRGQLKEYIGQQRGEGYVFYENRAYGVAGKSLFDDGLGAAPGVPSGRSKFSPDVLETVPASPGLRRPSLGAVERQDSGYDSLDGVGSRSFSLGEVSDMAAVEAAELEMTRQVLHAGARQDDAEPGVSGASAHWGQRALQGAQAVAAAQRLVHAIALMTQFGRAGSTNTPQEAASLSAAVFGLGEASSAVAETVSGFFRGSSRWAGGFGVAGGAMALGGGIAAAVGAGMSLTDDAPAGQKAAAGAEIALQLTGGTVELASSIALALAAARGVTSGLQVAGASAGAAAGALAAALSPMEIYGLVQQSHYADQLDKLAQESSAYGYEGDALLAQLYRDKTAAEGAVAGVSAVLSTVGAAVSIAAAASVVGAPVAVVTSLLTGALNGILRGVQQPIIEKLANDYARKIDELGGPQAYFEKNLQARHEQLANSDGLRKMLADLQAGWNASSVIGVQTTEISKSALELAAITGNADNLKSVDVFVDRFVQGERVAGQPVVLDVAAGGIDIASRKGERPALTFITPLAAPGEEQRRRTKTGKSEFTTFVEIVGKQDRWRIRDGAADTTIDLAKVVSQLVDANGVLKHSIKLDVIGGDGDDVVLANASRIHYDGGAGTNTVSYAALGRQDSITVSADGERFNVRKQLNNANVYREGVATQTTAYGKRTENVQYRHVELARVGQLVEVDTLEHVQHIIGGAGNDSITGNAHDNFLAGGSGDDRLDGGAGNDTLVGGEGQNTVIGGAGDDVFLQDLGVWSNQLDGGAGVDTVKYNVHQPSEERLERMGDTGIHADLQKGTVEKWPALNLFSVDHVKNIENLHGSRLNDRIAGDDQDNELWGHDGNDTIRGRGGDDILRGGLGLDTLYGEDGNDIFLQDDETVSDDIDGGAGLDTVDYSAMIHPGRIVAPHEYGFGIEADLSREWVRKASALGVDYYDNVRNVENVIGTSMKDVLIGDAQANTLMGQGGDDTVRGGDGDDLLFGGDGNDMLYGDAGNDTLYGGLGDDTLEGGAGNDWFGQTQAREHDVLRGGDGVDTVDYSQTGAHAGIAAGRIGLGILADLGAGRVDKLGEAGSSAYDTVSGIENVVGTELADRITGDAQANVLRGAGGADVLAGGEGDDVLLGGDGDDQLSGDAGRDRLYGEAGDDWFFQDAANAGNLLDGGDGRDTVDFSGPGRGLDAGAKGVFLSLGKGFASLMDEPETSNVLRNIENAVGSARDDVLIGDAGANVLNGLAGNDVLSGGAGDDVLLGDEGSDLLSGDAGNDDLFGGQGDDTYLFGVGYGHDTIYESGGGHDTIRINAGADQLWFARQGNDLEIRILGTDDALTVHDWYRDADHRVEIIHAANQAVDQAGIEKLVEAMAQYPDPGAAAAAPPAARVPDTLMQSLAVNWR
Sequence of CyaA CC activity (P0DKX7 whole entry, looked up): as above

The Ki is the equilibrium dissociation constant of an inhibitor or competing ligand from its target. Take MANT-ATP: the Ki is 4.4 ± 0.1 µM on CyaA CC activity and 4.3 ± 0.4 µM on CyaA AC activity.
Regarding `Nc1ncnc2c1ncn2CCOCP(=O)(O)OP(=O)(O)OP(=O)(O)O` [PMEApp, [9-[2-(Phosphonomethoxy)ethyl]adenine diphosphate]], the Ki at EF CC activity came out at 4.5 ± 0.4 nM; on EF AC activity [1] it was 2 ± 0.5 nM.
For MANT-GTP, the Ki is 6.1 ± 2 µM on CyaA CC activity, 5.9 ± 1 µM at CyaA AC activity, 2500 ± 100 nM at EF AC activity [2] and 2800 ± 400 nM on EF CC activity.
